Assay results reported in patent US20220155314A1, “TROPHOBLAST STEM CELL, METHODS OF PREPARATION AND USES THEREOF” (Academia Sinica, priority 2020, published 2022).
Residues, ends and D or L forms follow the SMILES beside them. *: point of attachment. Cbz = O=C(OCc1ccccc1)*

Assays:
[1] = tested on: BeWo cells; experiment: Expression of trophoblast stemness and differentiation genes in BeWo cells treated with EGF and chemical inhibitors; type: cell-based, human; settings: 1 mM VPA with 20 μM MG132, 8 h (FIG. 6G)
Protocol: FIGS. 6A to 6I show the regulation of trophoblast stemness and differentiation by antagonism between ΔNp63α and GCM1. […] ITGA6-positive term CTBs were cultured in complete TS medium for 5 days and then maintained in the same medium or incomplete medium (vehicle alone without EGF and chemical inhibitors) for an additional 7 days. Cells were subjected to immunofluorescence microscopy of ΔNp63α, GCM1, and hCGβ. […] BeWo cells were incubated in complete or incomplete TS medium supplemented with the indicated growth factor or chemical inhibitor(s) for 24 h. Cells were harvested for quantitative RT-PCR analysis of the indicated stemness or differentiation genes. […] BeWo cells were treated with the indicated concentration of VPA for 24 hours and then harvested for immunoblotting and quantitative RT-PCR analyses of GCM1, ΔNp63α, and hCGβ. […] BeWo cells were transfected with 4XCSL-luciferase in the presence or absence of 2 mM VPA for 48 hours, followed by luciferase assays. […] 293T cells were transfected with pHA-GCM1 and pNotch1IC-FLAG for 48 hours, followed by coimmunoprecipitation analysis and confocal microscopy using FLAG and HA mAbs and GCM1 Ab. […] EGFP-positive mock or Notch1IC-FLAG-expressing BeWo cells were treated with or without 50 μM FSK for 24 h, followed by immunoblotting and quantitative RT-PCR analyses of GCM1, hCGβ or HTRA4. […] BeWo cells were treated with or without 1 mM VPA in the presence or absence of 20 μM MG132 for 8 h and then subjected to immunoblotting analysis of GCM1 and Notch1IC. […] The EGFP-positive mock or Notch1IC-FLAG-expressing BeWo cells were transfected with the GCM1 promoter reporter plasmid E1bLUCGCM1-2K for 48 h and then subjected to luciferase assays. […] BeWo cells and ITGA6-positive term CTBs were cultured under normoxic or hypoxic conditions for 72 h and 7 days, respectively. Cells were then harvested for quantitative RT-PCR analysis of GCM1, ΔNp63α, HTRA4, hCGβ, and MKI67. Means and standard deviations obtained from three independent experiments are presented.
To study the effect of EGF and chemical inhibitors on trophoblast differentiation, BeWo cells were cultured in the complete TS medium or in the incomplete TS medium with EGF alone or the indicated chemical inhibitor(s) for 24 h. Cells were then harvested for quantitative RT-PCR or immunoblotting analysis of expression of ΔNp63α, eomesodermin (EOMES), E74-like factor 5 (ELF5) or GCM1 and its target genes.

[2] = tested on: ΔNp63α; experiment: ΔNp63α stability in JEG3 cells (FSK with or without MG132); type: cell-based, human; settings: 50 μM FSK 24 h in presence of MG132 (FIG. 3F)
Protocol: FIGS. 3A to 3I show reciprocal regulation of GCM1 and ΔNp63α activities in trophoblast differentiation. […] Scramble control, ΔNp63α-knockdown or GCM1-knockdown JEG3 cells were treated with or without 50 μM FSK for 24 h and then harvested for immunoblotting and quantitative RT-PCR analyses of SYN1, hCGβ, HTRA4 proteins or transcripts. Arrowhead denotes a non-specific band recognized by ΔNp63α Ab. […] Scramble control and ΔNp63α knockdown JEG3 cells were treated with or without 50 μM FSK for 48 h, followed by immunofluorescence microscopy with E-cadherin Ab. Syncytial margins are marked with stippled line. Cell fusion was quantified by fusion index. […] Mock and ΔNp63α-FLAG-expressing BeWo cells or scramble control and ΔNp63α-knockdown JEG3 cells were subjected to immunoblotting and quantitative RT-PCR analyses of RACK1 and GATA3 proteins or transcripts. […] Scramble control or ΔNp63α-knockdown JEG3 cells were transfected with pHTRA4-1 Kb with or without pGATA3-FLAG for 48 h, followed by luciferase assays. […] WT and GCM1-KO JEG3 cells were treated with or without 50 μM FSK for 24 hours and then harvested for immunoblotting and quantitative RT-PCR analyses of GCM1, ΔNp63α, hCGβ proteins and transcripts. […] Quantitation of band intensity was performed by densitometry analysis, and the relative ΔNp63α protein level was normalized by β-actin. […]

CC(C)C[C@@H](C=O)NC(=O)[C@H](CC(C)C)NC(=O)[C@H](CC(C)C)NC(=O)OCc1ccccc1 [MG132] (Cbz-Leu-Leu-Leu-aldehyde)
VPA-mediated downregulation of GCM1 expression [1]: compromised | suppressive effect of FSK on ΔNp63α expression [2]: counteracted
